# From patent publication EP2226323A1, “New tetrahydropyrazolo[3,4-c]isoquinolin-5-amine derivatives” (Almirall, S.A., priority 2009, dated 2010)
# Target: recombinant PDE4 enzyme
# Experiment: PDE4 assay: [3H] cAMP Scintillation Proximity Assay (SPA) of phosphodiesterase activity
# Format: biochemical
# Settings: yeast extract of recombinant PDE4 enzyme; 30 nM [3H] cAMP; 1 hr at room temperature; pH 7.5
# Method: Measurement of Phosphodiesterase Activity was done using a [3H] cAMP Scintillation Proximity Assay (SPA) (GE Healthcare). Compounds to be tested were dissolved in DMSO at a stock concentration of 1 mM and serial dilutions were prepared in 50% DMSO to determine IC50s. The reactions were conducted in 96-well plates (Corning, Ref.3604) at room temperature, in 0.1 ml of reaction buffer containing (final concentrations): 50 mM Tris-HCl, pH 7.5, 8.3 mM MgCl2, 1.7 mM EGTA, 30 nM [3H] cAMP (approximately 150000 dpm/well) with or without the inhibitors. The reaction was initiated by adding yeast extract of recombinant PDE4 enzyme. Plates were shaken for 1 hr at room temperature and the incubation was terminated by adding 50 µl (0.5 mg /well) of SPA yttrium silicate beads (RPNQ 0150; GE Healthcare) in the presence of zinc sulfate. Plates were stored overnight in the dark and read on a TRILUX microtiter plate reader (Perkin Elmer).
row,IC50 [nM],Compound
1,5.17,"CC1(C)CCc2c(Nc3c(Cl)cncc3Cl)nc3c(c(O)nn3Cc3ccc(C(N)=O)cc3)c2C1 [Example 14, 4-((5-(3,5-Dichloropyridin-4-ylamino)-1-hydroxy-8,8-dimethyl-6,7,8,9-tetrahydro-3H-pyrazolo[3,4-c]isoquinolin-3-yl)methyl)benzamide]"
2,2.4,"CC1(C)CCc2c(Nc3c(Cl)cncc3Cl)nc3c(c(O)nn3Cc3ccc(C(=O)O)cc3)c2C1 [Example 12, 4-((5-(3,5-Dichloropyridin-4-ylamino)-1-hydroxy-8,8-dimethyl-6,7,8,9-tetrahydro-3H-pyrazolo[3,4-c]isoquinolin-3-yl)methyl)benzoic acid]"
3,2.35,"CC1(C)CCc2c(Nc3c(Cl)cncc3Cl)nc3c(c(O)nn3Cc3cccc(C#N)c3)c2C1 [Example 13, 3-((5-(3,5-Dichloropyridin-4-ylamino)-1-hydroxy-8,8-dimethyl-6,7,8,9-tetrahydro-3H-pyrazolo[3,4-c]isoquinolin-3-yl)methyl)benzonitrile]"
4,6.14,"CC1(C)CCc2c(Nc3c(Cl)cncc3Cl)nc3c(c(O)nn3CCCN3CCOCC3)c2C1 [Example 15, 5-(3,5-Dichloropyridin-4-ylamino)-8,8-dimethyl-3-(3-morpholinopropyl)-6,7,8,9-tetrahydro-3H-pyrazolo[3,4-c]isoquinolin-1-ol]"
5,2.1,"CC1(C)CCc2c(Nc3c(Cl)cncc3Cl)nc3c(c(O)nn3CCCc3cccc(C(N)=O)c3)c2C1 [Example 17, 3-(3-(5-(3,5-Dichloropyridin-4-ylamino)-1-hydroxy-8,8-dimethyl-6,7,8,9-tetrahydro-3H-pyrazolo[3,4-c]isoquinolin-3-yl)propyl)benzamide]"
6,15.5,"CC1(C)CCc2c(Nc3c(Cl)cncc3Cl)nc3c(c(O)nn3CCCc3cccc(C#N)c3)c2C1 [Example 16, 3-(3-(5-(3,5-Dichloropyridin-4-ylamino)-1-hydroxy-8,8-dimethyl-6,7,8,9-tetrahydro-3H-pyrazolo[3,4-c]isoquinolin-3-yl)propyl)benzonitrile]"

# The next lines start with the compound.
row,Compound,IC50 [nM]
1,"CC1(C)CCc2c(Nc3c(Cl)cncc3Cl)nc3c(c(O)nn3Cc3cccnc3)c2C1 [Example 8, 5-(3,5-Dichloropyridin-4-ylamino)-8,8-dimethyl-3-(pyridin-3-ylmethyl)-6,7,8,9-tetrahydro-3H-pyrazolo[3,4-c]isoquinolin-1-ol]",7.4
2,"CN(C)C(=O)c1cccc(S(=O)(=O)n2nc(O)c3c4c(c(Nc5c(Cl)cncc5Cl)nc32)CCC(C)(C)C4)c1 [Example 3, 3-(5-(3,5-Dichloropyridin-4-ylamino)-1-hydroxy-8,8-dimethyl-6,7,8,9-tetrahydro-3H-pyrazolo[3,4-c]isoquinolin-3-ylsulfonyl)-N, N-dimethylbenzamide]",16.8
3,"CC1(C)CCc2c(Nc3c(Cl)cncc3Cl)nc3c(c(O)nn3Cc3cccc(C(N)=O)c3)c2C1 [Example 10, 3-((5-(3,5-Dichloropyridin-4-ylamino)-1-hydroxy-8,8-dimethyl-6,7,8,9-tetrahydro-3H-pyrazolo[3,4-c]isoquinolin-3-yl)methyl)benzamide]",2.3
4,"CC1(C)CCc2c(Nc3c(Cl)cncc3Cl)nc3c(c(O)nn3CC(N)=O)c2C1 [Example 9, 2-(5-(3,5-Dichloropyridin-4-ylamino)-1-hydroxy-8,8-dimethyl-6,7,8,9-tetrahydro-3H-pyrazolo[3,4-c]isoquinolin-3-yl)acetamide]",18.8
5,"Cn1nc(O)c2c3c(c(Nc4c(Cl)cncc4Cl)nc21)CCC(C)(C)C3 [Example 5, 5-(3,5-Dichloropyridin-4-ylamino)-3,8,8-trimethyl-6,7,8,9-tetrahydro-3H-pyrazolo[3,4-c]isoquinolin-1-ol]",17.1
6,"Methyl 3-((5-(3,5-dichloropyridin-4-ylamino)-1-hydroxy-8,8-dimethyl-6,7,8,9-tetrahydro-3H-pyrazolo[3,4-c]isoquinolin-3-yl)methyl)benzoate [Example 6]",2
7,"CC1(C)CCc2c(Nc3c(Cl)cncc3Cl)nc3[nH]nc(N)c3c2C1 [Example 2, N^5-(3,5-Dichloropyridin-4-yl)-8,8-dimethyl-6,7,8,9-tetrahydro-3H-pyrazolo[3,4-c]isoquinoline-1,5-diamine]",62
8,"CC1(C)CCc2c(Nc3c(Cl)cncc3Cl)nc3c(c(O)nn3Cc3cccc(C(=O)O)c3)c2C1 [Example 7, 3-((5-(3,5-Dichloropyridin-4-ylamino)-1-hydroxy-8,8-dimethyl-6,7,8,9-tetrahydro-3H-pyrazolo[3,4-c]isoquinolin-3-yl)methyl)benzoic acid]",3.1
9,"CC1(C)CCc2c(Nc3c(Cl)cncc3Cl)nc3[nH]nc(O)c3c2C1 [Example 1, 5-(3,5-Dichloropyridin-4-ylamino)-8,8-dimethyl-6,7,8,9-tetrahydro-3H-pyrazolo[3,4-c]isoquinolin-1-ol]",3.9
10,"COc1cccc(Cn2nc(O)c3c4c(c(Nc5c(Cl)cncc5Cl)nc32)CCC(C)(C)C4)c1 [Example 4, 5-(3,5-Dichloropyridin-4-ylamino)-3-(3-methoxybenzyl)-8,8-dimethyl-6,7,8,9-tetrahydro-3H-pyrazolo[3,4-c]isoquinolin-1-ol]",11
